Data taken from ChEMBL document CHEMBL4387706, “Discovery of Novel Spiroindoline Derivatives as Selective Tankyrase Inhibitors” (J Med Chem, 2019).
Values after ≈ are worked out from the molar mass of the structure shown.

What was measured:
COLO 320DM [1] = test: cells; details: Homo sapiens, 96 h
Description: Antiproliferative activity against human COLO320DM cells assessed as inhibition of cell growth measured after 4 days by CellTiter-Glo assay

in vitro [2] = details: human, liver microsomes
Description: Stability in human liver microsomes assessed as parent compound remaining at 1 uM measured after 30 mins in presence of NADPH by LC-MS/MS analysis

[3] = biological target: T1, Poly [ADP-ribose] polymerase tankyrase-1 (Homo sapiens, UniProt O95271)
T1 sequence (O95271 whole entry): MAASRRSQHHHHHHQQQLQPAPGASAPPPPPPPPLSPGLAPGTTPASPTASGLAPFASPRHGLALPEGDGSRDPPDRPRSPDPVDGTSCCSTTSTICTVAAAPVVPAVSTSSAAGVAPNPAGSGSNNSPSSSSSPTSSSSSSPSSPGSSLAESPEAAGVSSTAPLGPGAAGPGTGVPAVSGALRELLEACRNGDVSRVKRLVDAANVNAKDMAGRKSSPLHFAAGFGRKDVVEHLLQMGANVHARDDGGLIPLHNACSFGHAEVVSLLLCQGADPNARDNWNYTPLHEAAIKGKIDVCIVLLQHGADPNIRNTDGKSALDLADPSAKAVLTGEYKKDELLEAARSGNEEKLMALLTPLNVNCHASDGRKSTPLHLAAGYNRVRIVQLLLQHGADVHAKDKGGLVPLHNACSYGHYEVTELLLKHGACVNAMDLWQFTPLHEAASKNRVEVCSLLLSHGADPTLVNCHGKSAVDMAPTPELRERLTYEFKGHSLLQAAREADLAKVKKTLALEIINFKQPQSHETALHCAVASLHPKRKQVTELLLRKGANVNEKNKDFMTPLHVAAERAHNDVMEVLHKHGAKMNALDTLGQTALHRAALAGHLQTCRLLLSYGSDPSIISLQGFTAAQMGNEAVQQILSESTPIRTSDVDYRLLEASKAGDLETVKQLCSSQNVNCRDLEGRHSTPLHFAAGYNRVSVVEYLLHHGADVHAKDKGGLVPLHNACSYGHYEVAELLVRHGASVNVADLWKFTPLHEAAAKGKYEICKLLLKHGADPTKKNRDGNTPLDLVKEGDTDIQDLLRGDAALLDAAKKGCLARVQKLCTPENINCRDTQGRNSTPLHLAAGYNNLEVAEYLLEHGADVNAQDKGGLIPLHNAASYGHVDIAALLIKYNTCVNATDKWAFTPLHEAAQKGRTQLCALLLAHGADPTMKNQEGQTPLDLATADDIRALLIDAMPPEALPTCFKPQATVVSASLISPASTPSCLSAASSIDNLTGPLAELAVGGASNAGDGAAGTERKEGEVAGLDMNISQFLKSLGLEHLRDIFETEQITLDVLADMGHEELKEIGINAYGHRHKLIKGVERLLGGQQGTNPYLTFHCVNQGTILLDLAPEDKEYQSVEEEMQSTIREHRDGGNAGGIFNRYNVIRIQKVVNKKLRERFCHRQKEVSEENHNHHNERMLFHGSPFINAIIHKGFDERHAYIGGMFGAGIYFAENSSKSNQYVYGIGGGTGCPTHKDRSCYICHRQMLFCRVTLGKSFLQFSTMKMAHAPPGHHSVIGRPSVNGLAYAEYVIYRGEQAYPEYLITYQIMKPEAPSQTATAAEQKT
Description: Inhibition of recombinant human N-terminal TEV cleavage site-fused/FLAG-poly his-tagged TNKS SAM-PARP domain (1024 to 1327 residues) expressed in Escherichia coli assessed as reduction in auto-PARylation preincubated for 10 mins followed by biotinylated-NAD+ addition and measured after 45 mins by ELISA

[4] = biological target: Poly [ADP-ribose] polymerase 1 (Homo sapiens, UniProt P09874)
Poly [ADP-ribose] polymerase 1, sequence (P09874 whole entry): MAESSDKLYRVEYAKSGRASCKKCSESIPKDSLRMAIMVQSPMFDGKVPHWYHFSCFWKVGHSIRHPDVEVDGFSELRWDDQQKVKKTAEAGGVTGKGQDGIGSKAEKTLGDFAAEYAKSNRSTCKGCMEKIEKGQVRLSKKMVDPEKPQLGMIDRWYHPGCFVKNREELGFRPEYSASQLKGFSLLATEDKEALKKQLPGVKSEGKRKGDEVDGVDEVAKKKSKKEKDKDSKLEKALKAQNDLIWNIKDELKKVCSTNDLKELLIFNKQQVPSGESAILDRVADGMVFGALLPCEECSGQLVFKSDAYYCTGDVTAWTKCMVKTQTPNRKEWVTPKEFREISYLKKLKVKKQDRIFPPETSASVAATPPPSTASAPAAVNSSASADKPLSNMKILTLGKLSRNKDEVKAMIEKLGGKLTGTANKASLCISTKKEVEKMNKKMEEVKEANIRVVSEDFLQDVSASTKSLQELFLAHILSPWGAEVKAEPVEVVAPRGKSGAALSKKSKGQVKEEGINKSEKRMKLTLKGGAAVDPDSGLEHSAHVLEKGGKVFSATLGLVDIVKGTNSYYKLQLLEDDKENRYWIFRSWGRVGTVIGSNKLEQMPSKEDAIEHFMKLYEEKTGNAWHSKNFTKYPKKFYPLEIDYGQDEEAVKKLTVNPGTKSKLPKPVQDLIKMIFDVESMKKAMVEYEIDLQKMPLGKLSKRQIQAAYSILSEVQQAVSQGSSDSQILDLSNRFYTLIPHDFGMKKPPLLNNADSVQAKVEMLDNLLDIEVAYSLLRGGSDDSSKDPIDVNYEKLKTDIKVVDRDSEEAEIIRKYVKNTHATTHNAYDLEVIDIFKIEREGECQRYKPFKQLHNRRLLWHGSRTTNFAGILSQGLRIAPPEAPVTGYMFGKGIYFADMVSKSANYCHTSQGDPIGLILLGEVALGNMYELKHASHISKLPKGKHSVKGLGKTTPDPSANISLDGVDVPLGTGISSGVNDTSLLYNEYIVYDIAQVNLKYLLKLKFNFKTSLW
Description: Inhibition of recombinant human PARP1 expressed in Escherichia coli assessed as reduction in auto-PARylation using histone as substrate measured after 45 mins in presence of biotinylated-NAD+ by ELISA

[5] = biological target: T2, Poly [ADP-ribose] polymerase tankyrase-2 (Homo sapiens, UniProt Q9H2K2)
T2 sequence (Q9H2K2 whole entry): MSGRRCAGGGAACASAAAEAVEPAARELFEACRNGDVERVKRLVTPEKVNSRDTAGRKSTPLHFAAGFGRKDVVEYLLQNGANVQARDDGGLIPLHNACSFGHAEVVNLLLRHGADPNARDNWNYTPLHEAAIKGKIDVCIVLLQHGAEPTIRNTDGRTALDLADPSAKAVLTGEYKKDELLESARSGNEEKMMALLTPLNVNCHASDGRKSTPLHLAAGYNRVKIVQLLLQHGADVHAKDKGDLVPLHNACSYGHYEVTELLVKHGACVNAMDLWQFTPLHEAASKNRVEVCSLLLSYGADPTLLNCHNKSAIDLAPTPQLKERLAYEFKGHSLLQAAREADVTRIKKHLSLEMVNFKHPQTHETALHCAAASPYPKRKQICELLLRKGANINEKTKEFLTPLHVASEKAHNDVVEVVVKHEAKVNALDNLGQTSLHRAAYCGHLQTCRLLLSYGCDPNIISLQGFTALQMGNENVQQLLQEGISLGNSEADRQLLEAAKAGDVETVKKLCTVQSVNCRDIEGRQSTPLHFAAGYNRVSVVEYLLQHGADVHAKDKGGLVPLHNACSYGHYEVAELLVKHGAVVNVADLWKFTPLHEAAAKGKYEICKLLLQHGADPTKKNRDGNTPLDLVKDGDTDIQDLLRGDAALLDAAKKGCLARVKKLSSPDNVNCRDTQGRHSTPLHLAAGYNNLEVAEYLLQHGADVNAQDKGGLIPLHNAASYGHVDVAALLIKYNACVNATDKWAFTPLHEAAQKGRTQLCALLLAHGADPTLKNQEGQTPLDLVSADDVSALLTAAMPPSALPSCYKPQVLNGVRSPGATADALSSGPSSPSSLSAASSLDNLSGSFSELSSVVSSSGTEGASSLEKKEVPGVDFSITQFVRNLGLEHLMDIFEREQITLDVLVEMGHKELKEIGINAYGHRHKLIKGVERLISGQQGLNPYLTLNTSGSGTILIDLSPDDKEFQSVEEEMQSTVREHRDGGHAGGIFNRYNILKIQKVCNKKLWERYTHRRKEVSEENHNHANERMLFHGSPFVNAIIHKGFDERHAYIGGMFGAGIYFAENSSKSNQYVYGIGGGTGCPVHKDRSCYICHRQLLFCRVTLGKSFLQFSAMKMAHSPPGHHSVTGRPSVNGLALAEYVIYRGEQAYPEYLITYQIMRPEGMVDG
Description: Inhibition of recombinant human N-terminal TEV cleavage site-fused/FLAG-poly his-tagged TNKS2 SAM-PARP domain (613 to 1166 residues) expressed in Escherichia coli assessed as reduction in auto-PARylation preincubated for 10 mins followed by biotinylated-NAD+ addition and measured after 45 mins by ELISA

in vitro [6] = details: mouse, liver microsomes
Description: Stability in mouse liver microsomes assessed as parent compound remaining at 1 uM measured after 30 mins in presence of NADPH by LC-MS/MS analysis

Tankyrase 1/2 = biological target: T3, Tankyrase 1/2 (Homo sapiens, UniProt Q9H2K2+O95271)
T3 sequence (Q9H2K2 whole entry): T2 sequence (Q9H2K2 whole entry)
T3 sequence (O95271 whole entry): T1 sequence (O95271 whole entry)
Description: Inhibition of TNKS/TNKS2 (unknown origin) expressed in human DLD1 cells assessed as reduction in Wnt-signaling measured after 24 hrs by TCF-luciferase reporter gene assay

physchem = details: phosphate buffer, pH 7.4
RKO = test: Antiproliferative activity against human RKO cells assessed inhibition of cell growth measured after 5 days by MTT assay; type: functional; details: 120 h
COLO 320DM [7] = test: Antiproliferative activity against human COLO320DM cells assessed inhibition of cell growth measured after 5 days by MTT assay; type: functional; details: 120 h
[8] = biological target: Tankyrase 1/2 (Homo sapiens) (UniProt Q9H2K2+O95271); test: Inhibition of TNKS/TNKS2 in human COLO320DM cells assessed as upregulation of AXIN2 expression at 0.1 uM measured after 16 hrs by Western blot analysis relative to G007-LK; type: cell-based

Row | Compound | GI50 (COLO 320DM [1]) [nM] | remaining at 0.5 h, 1 µM (in vitro [2]) [%] | IC50 [3] [nM] | IC50 [4] [nM] | IC50 [5] [nM] | remaining at 0.5 h, 1 µM (in vitro [6]) [%] | IC50 (Tankyrase 1/2) [nM] | solubility at 1 h, 200 µM (physchem) [µg/mL] | GI50 (COLO 320DM [7]) [nM] | fold change (FC) [8] | GI50 (RKO) [nM]
1 | O=c1[nH]c(N2CCC3(CC2)CN(CCO)c2cc(Cl)cc(Cl)c23)nc2c1CCCC2 | 2900 | – | 18.2 | > 20000 | 16.4 | – | 119 | 5.2 (≈ 11.6 µM) | 4650 | 4.03 | 40
2 | COc1ccccc1N1CCN(c2nc3c(c(=O)[nH]2)COCC3)CC1 | 17100 | – | 67.6 | > 20000 | 112 | – | 1009 | 12.3 (≈ 35.9 µM) | – | – | –
3 | COc1ccc(N2CCN(c3nc4c(c(=O)[nH]3)CCCC4)CC2)cc1 | > 20000 | – | 35 | > 20000 | 45.5 | – | 1294 | 4.6 (≈ 13.5 µM) | – | – | –
4 | COc1ccc(N2CCN(c3nc4c(c(=O)[nH]3)CC(F)(F)CC4)CC2)cc1 | > 20000 | – | 79.6 | > 20000 | 36.4 | – | 1971 | 1.1 (≈ 2.92 µM) | – | – | –
5 | COc1ccccc1N1CCN(c2nc3c(c(=O)[nH]2)CSCC3)CC1 | 3800 | – | 2.5 | > 20000 | 2.3 | – | 23.2 | 0.5 (≈ 1.39 µM) | – | – | –
6 | COc1cccc(N2CCN(c3nc4c(c(=O)[nH]3)CCCC4)CC2)c1 | 14200 | – | 39.4 | > 20000 | 39.7 | – | 1066 | 5.2 (≈ 15.3 µM) | – | – | –

Continued, in another order:

Row | GI50 (COLO 320DM [1]) [nM] | remaining at 0.5 h, 1 µM (in vitro [2]) [%] | IC50 [3] [nM] | IC50 [4] [nM] | IC50 [5] [nM] | remaining at 0.5 h, 1 µM (in vitro [6]) [%] | IC50 (Tankyrase 1/2) [nM] | solubility at 1 h, 200 µM (physchem) [µg/mL] | GI50 (COLO 320DM [7]) [nM] | fold change (FC) [8] | Compound | GI50 (RKO) [nM]
7 | 13100 | 77.9 | 28.5 | > 20000 | 20.7 | 34.7 | 352 | 1.6 (≈ 4.76 µM) | – | – | O=c1[nH]c(N2CCC3(CC2)CNc2ccccc23)nc2c1CCCC2 | –
8 | 5800 | 76.3 | 31.5 | > 20000 | 35.7 | 0 | 342 | 1.07 (≈ 3.17 µM) | – | – | O=c1[nH]c(N2CCC3(CC2)OCc2ccccc23)nc2c1CCCC2 | –
9 | 10800 | 64.3 | 43.4 | > 20000 | 14.6 | 0.1 | 608 | 0.67 (≈ 1.99 µM) | – | – | O=c1[nH]c(N2CCC3(CC2)COc2ccccc23)nc2c1CCCC2 | –
10 | 4600 | 62.1 | 65.4 | > 20000 | 67.6 | 0 | 531 | 1 (≈ 2.95 µM) | – | – | COc1ccccc1C1CCN(c2nc3c(c(=O)[nH]2)CCCC3)CC1 | –
11 | 11200 | 84.3 | 27.6 | > 20000 | 25.1 | 0 | 591 | 64.2 (≈ 183 µM) | – | – | O=C1Nc2ccccc2C12CCN(c1nc3c(c(=O)[nH]1)CCCC3)CC2 | –
12 | 22400 | – | 118 | > 20000 | 29.3 | – | 1605 | 67 (≈ 199 µM) | – | – | O=c1[nH]c(N2CCC3(CC2)NCc2ccccc23)nc2c1CCCC2 | –
13 | 6300 | 99.3 | 35 | > 20000 | 49.7 | 91.7 | 1161 | 14.2 (≈ 42.1 µM) | – | – | COc1ccccc1C1=CCN(c2nc3c(c(=O)[nH]2)CCCC3)CC1 | –
14 | > 50000 | 28.1 | 30.2 | > 20000 | 18.3 | 0.1 | > 10000 | 1.17 (≈ 3.33 µM) | – | – | O=C1Oc2ccccc2C12CCN(c1nc3c(c(=O)[nH]1)CCCC3)CC2 | –
